Tests used:
Assay in all cases: Calibration curve for amino acid by coupled PPDK and LDH
Type in all cases: biochemical, Thermotoga maritima MSB8 strain
Thermotoga-derived LysRS = biological target: T1, Thermotoga-derived LysRS (Thermotoga maritima, UniProt Q9X231); conditions: Lys 0 to 200 μM; hydroxylamine 1000 mM; LysRS 0.1 mg/ml (10 mU/ml); 30° C.
T1 construct: His tag (C); made in house; host or cells: Escherichia coli BL21 (DE3)
T1 sequence (Q9X231 1-502): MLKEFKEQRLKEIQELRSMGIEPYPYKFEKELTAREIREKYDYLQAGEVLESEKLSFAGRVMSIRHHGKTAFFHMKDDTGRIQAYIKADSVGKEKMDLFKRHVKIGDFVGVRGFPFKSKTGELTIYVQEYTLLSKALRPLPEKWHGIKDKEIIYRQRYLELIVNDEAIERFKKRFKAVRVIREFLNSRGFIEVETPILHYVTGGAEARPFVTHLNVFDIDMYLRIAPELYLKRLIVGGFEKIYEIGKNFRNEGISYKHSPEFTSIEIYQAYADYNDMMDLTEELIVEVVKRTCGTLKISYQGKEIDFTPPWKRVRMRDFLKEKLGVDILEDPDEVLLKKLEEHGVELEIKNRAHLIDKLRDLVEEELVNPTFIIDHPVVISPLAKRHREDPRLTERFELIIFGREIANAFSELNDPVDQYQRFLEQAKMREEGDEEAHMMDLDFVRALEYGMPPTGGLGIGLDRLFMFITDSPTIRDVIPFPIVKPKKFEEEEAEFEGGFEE
Method: (§1) A test sample containing an amino acid as the measurement subject and a reaction mixture for quantifying amino acid having the following composition were mixed. The mixture was left standing at 30° C. to allow the AARS, PPDK, and LDH reactions to advance, and decrease of the absorbance at 340 nm was measured. The volume of the mixture was 200 μl, and after the reaction mixture was put into the wells of a 96-well microplate, the absorbance was measured with a microplate reader.
(§2) Reaction mixture for quantifying amino acid: 20 mM Tris-HCl (pH 7.0), 10 mM MgCl2, 10 mM NH4Cl, 0.3 mM PEP, 0.3 mM NADH, 0.2 mM ATP, 0.2 mM AMP, 70 mU/ml PPDK, 50 U/ml LDH, and AARS (concentrations are final concentrations obtained after mixing with test sample)
(§3) Calibration curves were prepared by using the AARS activity measurement method described in 8. and standard Cys, Lys, Ser, and Tyr solutions as test samples. The concentrations of the aforementioned amino acids were set so that the final concentrations thereof are in the range of 0 to 200 μM. The hydroxylamine concentration was 200 mM for the samples used for the Tyr calibration curve, or 1000 mM for the samples used for the Cys, Lys, and Ser calibration curves. The Thermotoga-derived CysRS, LysRS, SerRS, TyrRS, and the Thermus-derived TyrRS were added to the reaction mixture at final concentrations of 0.2 (7 mU/ml), 0.1 (10 mU/ml), 0.2 (8 mU/ml), 0.4 (40 mU/ml), and 0.1 mg/ml, respectively.
(§4) Calibration curves could be similarly prepared when adding pyrophosphate instead of the aforementioned amino acids, but the inclinations of the Lys, Ser, and Tyr calibration curves (absorbance change per mM of substrate) were 80% or more of the inclination of the pyrophosphate calibration curve. […] The inclination of the Cys calibration curve was slightly smaller than those of the other calibration curves, and it is considered that this is because a part of cysteine in the test sample was converted into cystine by air oxidation, and the real concentration of cysteine was reduced.

Thermotoga-derived SerRS = biological target: T2, Thermotoga-derived SerRS (Thermotoga maritima, UniProt Q9X199); conditions: Ser 0 to 200 μM; hydroxylamine 1000 mM; SerRS 0.2 mg/ml (8 mU/ml); 30° C.
T2 construct: His tag (C); made in house; host or cells: Escherichia coli BL21 (DE3)
Method: as §1, §2, §3, §4

Thermotoga-derived TyrRS = biological target: T3, Thermotoga-derived TyrRS (Thermotoga maritima, UniProt Q9WYU8); conditions: Tyr 0 to 200 μM; hydroxylamine 200 mM; TyrRS 0.4 mg/ml (40 mU/ml); 30° C.
T3 construct: The amplification products were each inserted into pET-28a to obtain plasmids for expression of respective AARSs; His tag (N); made in house; host or cells: Escherichia coli BL21 (DE3)
T3 sequence (Q9WYU8 1-401): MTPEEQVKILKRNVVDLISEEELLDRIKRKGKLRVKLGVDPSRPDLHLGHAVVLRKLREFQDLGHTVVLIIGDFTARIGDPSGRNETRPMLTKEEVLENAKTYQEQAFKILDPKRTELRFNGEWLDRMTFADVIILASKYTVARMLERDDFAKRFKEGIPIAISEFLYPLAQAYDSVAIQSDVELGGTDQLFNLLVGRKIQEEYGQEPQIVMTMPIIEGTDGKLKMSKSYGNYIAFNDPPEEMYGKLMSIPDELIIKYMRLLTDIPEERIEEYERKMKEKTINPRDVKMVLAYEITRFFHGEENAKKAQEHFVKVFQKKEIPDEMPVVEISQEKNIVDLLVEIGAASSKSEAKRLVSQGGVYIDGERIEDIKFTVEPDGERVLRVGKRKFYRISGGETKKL
Method: as §1, §2, §3, §4

T2 sequence (Q9X199 whole entry): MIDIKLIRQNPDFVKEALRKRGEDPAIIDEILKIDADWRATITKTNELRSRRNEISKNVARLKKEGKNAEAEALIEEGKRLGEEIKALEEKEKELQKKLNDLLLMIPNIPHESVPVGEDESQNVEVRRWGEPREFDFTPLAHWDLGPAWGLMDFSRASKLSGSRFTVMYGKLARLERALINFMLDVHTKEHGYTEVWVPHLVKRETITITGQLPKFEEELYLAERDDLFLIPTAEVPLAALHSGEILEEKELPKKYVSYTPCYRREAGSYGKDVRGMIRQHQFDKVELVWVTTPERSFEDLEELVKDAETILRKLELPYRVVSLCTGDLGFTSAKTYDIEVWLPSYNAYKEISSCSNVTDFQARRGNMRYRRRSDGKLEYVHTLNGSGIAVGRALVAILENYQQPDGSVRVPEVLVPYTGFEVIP

Compound: NCCCC[C@H](N)C(=O)O [Lys, L-lysine]
- inclination of calibration curve relative to inclination of the pyrophosphate calibration curve (Thermotoga-derived LysRS): ≥ 80%

Compound: N[C@@H](CO)C(=O)O [Ser, L-serine]
- inclination of calibration curve relative to inclination of the pyrophosphate calibration curve (Thermotoga-derived SerRS): ≥ 80%

Compound: N[C@@H](Cc1ccc(O)cc1)C(=O)O [Tyr, L-tyrosine]
- inclination of calibration curve relative to inclination of the pyrophosphate calibration curve (Thermotoga-derived TyrRS): ≥ 80%

Reference: patent US9708639B2, “Method for quantifying amino acids with pyrophosphate” (TOYAMA PREFECTURE, priority 2012, dated 2017)
